Data as given in patent US20230330254A1 (Regeneron Pharmaceuticals, Inc., priority 2022, published 2023).
Like-named read-outs stand apart in the source and are kept apart here. Where a SMILES comes first, the peptide text is derived from it. [ ]: non-standard residue; d: D form. The star is where a group is joined. Bip(2'-Et,4'-O(CH2)4NH2) = CCc1cc(OCCCCN)ccc1-c1ccc(C[C@H](N)C(=O)O)cc1; Nva(5-(3,5-Me2Ph)) = Cc1cc(C)cc(CCC[C@H](N)C(=O)O)c1; Ala(1H-tetrazol-5-yl) = N[C@@H](Cc1nnn[nH]1)C(=O)O; αMePhe(2-F) = C[C@](N)(Cc1ccccc1F)C(=O)O; X3 = CC(C)(C(=O)*)c1ccn[nH]1; X1 = O=C(CCCCCc1cnc[nH]1)*; X4 = CC(C)(C(=O)O)C(=O)*

Key:
[1] = Plasma stability of payloads and linker-payloads, human plasma; assay type: in vitro ADME; conditions: plasma, 2 μM, 37° C., read-out: Human plasma stability assay T½ (converted)
Procedure: The plasma stability of payloads and linker payloads of the disclosure were measured. For the assay, pooled frozen plasma (human, mouse or monkey) was thawed in cold water or a 37° C. water bath prior to experiment. Plasma was centrifuged at 4000 rpm for 5 min if any clots were observed, they were subsequently removed. If required, the pH was adjusted to 7.4±0.1. For the preparation of compounds and positive controls, a 1 mM intermediate solution was prepared by diluting 10 μL of their stock solution with 90 μL DMSO; a 1 mM intermediate solution of the positive control (Propantheline) was prepared by diluting 10 μL of its stock solution with 90 μL ultrapure water. […] 98 μL of plasma was spiked with 2 μL of dosing solution (100 μM) to achieve the final concentration of 2 μM in duplicate. Samples were then incubated at 37° C. in a water bath. […] At each time point, 400 μL of stop solution (200 ng/mL tolbutamide plus 200 ng/mL labetalol in 50% ACN/MeOH) was added to precipitate protein and mixed thoroughly. Sample plates were then centrifuged at 4,000 rpm for 10 min. An aliquot of supernatant (50 μL) was transferred from each well and mixed with 100 μL ultrapure water. The samples were then shaken at 800 rpm for approximately 10 min before submitting for LC-MS/MS analysis.

HEK293/CRE-Luc cells [2] = test: Luciferase reporter assay, HEK293/CRE-Luc cells without hGLP1R (Example 11); assay type: cell-based, human; conditions: Table 11; Experiment A; no hGLP1R expression
Source text: (§1) To test the activity of GLP1R agonist payloads, GLP1R agonist linker-payloads (LPs), and anti-GLP1R antibody tethered drug conjugates (ATDCs) of the disclosure, a cell-based cAMP responsive luciferase reporter assay was developed. To generate the assay cell line, the firefly luciferase gene was placed under the control of a cAMP response element (CRE) located upstream of a minimal promoter and transfected into HEK293 cells and referred to herein as HEK293/CRE-Luc cells.
(§2) Three-fold serial dilutions of free payloads or LPs were prepared in 100% DMSO, transferred to fresh assay media, and added to the cells at a final constant DMSO concentration of 0.2%. The last well in the plate served as a blank control containing only the assay media and 0.2% DMSO (untreated well) and was plotted as a continuation of the 3-fold serial dilution. Four to six hours later, luciferase activity was determined after the addition of One-Glo™ reagent (Promega, Cat #E6130) to each well. Relative light units (RLUs) were measured on an Envision luminometer (PerkinElmer) and EC50 values were determined using a four-parameter logistic equation over a 12-point dose response curve (GraphPad Prism). The signal to noise (S/N) was determined by taking the ratio of the highest RLU on the dose response curve to the RLU in the untreated wells.

HEK293/CRE-Luc cells [3] = test: Luciferase reporter assay, HEK293/CRE-Luc cells without GLP1R (Example 17); assay type: cell-based, human; conditions: HEK293/CRE-Luc cells without hGLP1R, payloads and linker-payloads; for EC50: read-out: EC50
Outline: (§3)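 HEK293 cells carrying a CRE-driven firefly luciferase reporter were exposed to 3-fold serial dilutions of payloads or linker-payloads (12 points, 0.2% DMSO final) for 4–6 h, then luminescence was read. EC50 came from a four-parameter logistic fit; S/N is top RLU over untreated wells, and relative potency and S/N are referenced to M2361.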

[4] = Plasma stability of payloads (t½)
human GLP1R [5] = target: T1, human GLP1R (Homo sapiens, UniProt P43220); test: Luciferase reporter assay, HEK293/CRE-Luc/hGLP1R cells (Example 11); assay type: cell-based; design: engineered to express full-length human GLP1R, cynomolgus GLP1R; expressed in transfected cells; host or cells: HEK293/CRE-Luc; conditions: Table 11; Experiment A
T1 sequence (P43220 24-463): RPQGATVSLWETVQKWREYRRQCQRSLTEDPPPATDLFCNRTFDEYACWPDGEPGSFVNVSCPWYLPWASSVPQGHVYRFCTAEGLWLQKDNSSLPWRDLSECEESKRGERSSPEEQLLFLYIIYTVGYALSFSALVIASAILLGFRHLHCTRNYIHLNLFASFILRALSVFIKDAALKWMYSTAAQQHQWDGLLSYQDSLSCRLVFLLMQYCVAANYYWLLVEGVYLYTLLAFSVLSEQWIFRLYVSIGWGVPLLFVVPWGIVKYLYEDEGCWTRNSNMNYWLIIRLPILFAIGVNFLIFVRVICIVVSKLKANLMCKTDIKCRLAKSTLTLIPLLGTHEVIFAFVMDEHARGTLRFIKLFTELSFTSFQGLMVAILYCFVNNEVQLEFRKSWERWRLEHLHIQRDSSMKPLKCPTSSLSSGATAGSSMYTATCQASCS
Source text: as §1, §2
GLP1R agonist linker payloads were conjugated to anti-hGLP1R antibodies via N-terminal heavy or light chain Q tags. Several resulting anti-GLP1R antibody tethered drug conjugates (ATDCs) were tested for activity in the HEK293/CRE-Luc/hGLP1R reporter assay as described above for the free GLP1R payload and linker-payload agonists.

human GLP1R [6] = target: T1, human GLP1R; test: Luciferase reporter assay, HEK293/CRE-Luc/hGLP1R (Example 17); assay type: cell-based; design: engineered to express full-length human GLP1R, cynomolgus GLP1R; expressed in transfected cells; host or cells: HEK293/CRE-Luc; conditions: HEK293/CRE-Luc/hGLP1R; for S/N: highest RLU / RLU of untreated wells; for EC50: payloads and linker-payloads, experiments A-E, M2361 repeated in each, read-out: EC50; for Relative Potency (% M2361 EC50) / Relative Signal:Noise (% M2361): relative to M2361 of the same experiment
Outline: as §3

human GLP1R [7] = target: T1, human GLP1R; test: Human GLP1R cAMP accumulation assay; assay type: cell-based; design: HEK293 cells over-expressing full length human GLP-1R were utilized; expressed in transfected cells; host or cells: HEK293 (HEK293/hGLP1R); conditions: HEK293/hGLP1R cells; Table 4; read-out: cAMP EC50
Outline: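 cAMP accumulation measured after 30 min at 23° C, with 500 μM IBMX in HEPES-buffered HBSS plus 0.1% BSA, in HEK293 cells expressing full-length hGLP-1R. Levels read by D2-cAMP/antibody immunoassay via standard curve, scaled between low and high controls. EC50 fitted four-parameter over a 10-point curve.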

[8] = pH 7.4, tested time A (1 day per footnote)

## CCc1cc(OCCCCN)ccc1-c1ccc(C[C@H](NC(=O)[C@H](CC(=O)O)NC(=O)[C@H](CO)NC(=O)[C@@H](NC(=O)[C@](C)(Cc2ccccc2F)NC(=O)[C@@H](NC(=O)CNC(=O)[C@H](Cc2nn[nH]n2)NC(=O)[C@H](C)NC(=O)[C@H](Cc2c[nH]cn2)NC(=O)[C@@H](N)CCC(N)=O)[C@@H](C)O)[C@@H](C)O)C(=O)N[C@@H](CCCc2cc(C)cc(C)c2)C(N)=O)cc1 [P13] (H-QHA[Ala(1H-tetrazol-5-yl)]GT[αMePhe(2-F)]TSD[Bip(2'-Et,4'-O(CH2)4NH2)][Nva(5-(3,5-Me2Ph))]-NH2)
[1]; [8]
  half-life at 2 µM: 16.9 h
HEK293/CRE-Luc cells [2]
  EC50: > 200000 pM
  HEK293/CRE-LUC S/N: 1.2
HEK293/CRE-Luc cells [3]
  S/N: 1.2
  EC50: > 200000 pM
[4]
  Plasma stability t½: 16.9 h
Human GLP1R [5]
  EC50: 357 pM
  HEK293/CRE-LUC/hGLP1R Relative Potency (% P8 EC50): 1.5%
  HEK293/CRE-LUC/hGLP1R S/N: 69.5
Human GLP1R [6]
  S/N: 69.5
  EC50: 357 pM
  Relative Potency (% M2361 EC50): 1.5%
  Relative Signal:Noise (% M2361): 105.6%
Human GLP1R [7]
  EC50: 914 pM

## CCc1cc(OCCCCN)ccc1-c1ccc(C[C@H](NC(=O)[C@H](CC(=O)O)NC(=O)[C@H](CO)NC(=O)[C@@H](NC(=O)[C@](C)(Cc2ccccc2F)NC(=O)[C@@H](NC(=O)CNC(=O)[C@H](Cc2nn[nH]n2)NC(=O)CCCCCc2cnc[nH]2)[C@@H](C)O)[C@@H](C)O)C(=O)N[C@@H](CCCc2cc(C)cc(C)c2)C(N)=O)cc1 [P11] (X1-[Ala(1H-tetrazol-5-yl)]GT[αMePhe(2-F)]TSD[Bip(2'-Et,4'-O(CH2)4NH2)][Nva(5-(3,5-Me2Ph))]-NH2)
[1]; [8]
  half-life at 2 µM: > 57.8 h
HEK293/CRE-Luc cells [2]
  EC50: > 200000 pM
  HEK293/CRE-LUC S/N: 1.1
HEK293/CRE-Luc cells [3]
  S/N: 1.1
  EC50: > 200000 pM
[4]
  Plasma stability t½: >57.8 h
Human GLP1R [5]
  EC50: 685 pM
  HEK293/CRE-LUC/hGLP1R Relative Potency (% P8 EC50): 0.8%
  HEK293/CRE-LUC/hGLP1R S/N: 54.8
Human GLP1R [6]
  S/N: 54.8
  EC50: 685 pM
  Relative Potency (% M2361 EC50): 0.8%
  Relative Signal:Noise (% M2361): 83.4%
Human GLP1R [7]
  EC50: 1030 pM

## CCc1cc(OCCCCN)ccc1-c1ccc(C[C@H](NC(=O)[C@H](CC(=O)O)NC(=O)[C@H](CO)NC(=O)[C@@H](NC(=O)[C@](C)(Cc2ccccc2F)NC(=O)[C@@H](NC(=O)CNC(=O)[C@H](CCC(N)=O)NC(=O)C(C)(C)C(=O)NCCc2cnc[nH]2)[C@@H](C)O)[C@@H](C)O)C(=O)N[C@@H](CCCc2cc(C)cc(C)c2)C(N)=O)cc1 [P21]
[1]; pH 7.4, tested time C (3 days)
  half-life at 2 µM: > 173 h
HEK293/CRE-Luc cells [2]
  EC50: > 200000 pM
  HEK293/CRE-LUC S/N: 1.3
HEK293/CRE-Luc cells [3]
  S/N: 1.3
  EC50: > 200000 pM
[4]
  Plasma stability t½: >57.8 h
Human GLP1R [5]
  EC50: 738 pM
  HEK293/CRE-LUC/hGLP1R Relative Potency (% P8 EC50): 0.7%
  HEK293/CRE-LUC/hGLP1R S/N: 58.8
Human GLP1R [6]
  S/N: 58.8
  EC50: 738 pM
  Relative Potency (% M2361 EC50): 0.7%
  Relative Signal:Noise (% M2361): 89.5%
Human GLP1R [7]
  EC50: 427 pM

## CCc1cc(OCCCCN)ccc1-c1ccc(C[C@H](NC(=O)[C@H](CC(=O)O)NC(=O)[C@H](CO)NC(=O)[C@@H](NC(=O)[C@](C)(Cc2ccccc2F)NC(=O)[C@@H](NC(=O)CNC(=O)[C@H](Cc2nn[nH]n2)NC(=O)C(C)(C)c2ccn[nH]2)[C@@H](C)O)[C@@H](C)O)C(=O)N[C@@H](CCCc2cc(C)cc(C)c2)C(N)=O)cc1 [P6] (X3-[Ala(1H-tetrazol-5-yl)]GT[αMePhe(2-F)]TSD[Bip(2'-Et,4'-O(CH2)4NH2)][Nva(5-(3,5-Me2Ph))]-NH2)
[1]; [8]
  half-life at 2 µM: > 57.8 h
HEK293/CRE-Luc cells [2]
  EC50: > 200000 pM
  HEK293/CRE-LUC S/N: 1.0
HEK293/CRE-Luc cells [3]
  S/N: 1.0
  EC50: > 200000 pM
[4]
  Plasma stability t½: >57.8 h
Human GLP1R [5]
  EC50: 602 pM
  HEK293/CRE-LUC/hGLP1R Relative Potency (% P8 EC50): 0.9%
  HEK293/CRE-LUC/hGLP1R S/N: 60.7
Human GLP1R [6]
  S/N: 60.7
  EC50: 602 pM
  Relative Potency (% M2361 EC50): 0.9%
  Relative Signal:Noise (% M2361): 92.3%
Human GLP1R [7]
  EC50: 853 pM

## CCc1cc(OCCCCN)ccc1-c1ccc(C[C@H](NC(=O)[C@H](CC(=O)O)NC(=O)[C@H](CO)NC(=O)[C@@H](NC(=O)[C@](C)(Cc2ccccc2F)NC(=O)[C@@H](NC(=O)CNC(=O)[C@H](Cc2nn[nH]n2)NC(=O)C(C)(C)C(=O)O)[C@@H](C)O)[C@@H](C)O)C(=O)N[C@@H](CCCc2cc(C)cc(C)c2)C(N)=O)cc1 [P3] (X4-[Ala(1H-tetrazol-5-yl)]GT[αMePhe(2-F)]TSD[Bip(2'-Et,4'-O(CH2)4NH2)][Nva(5-(3,5-Me2Ph))]-NH2)
[1]; [8]
  half-life at 2 µM: > 57.8 h
HEK293/CRE-Luc cells [2]
  EC50: > 200000 pM
  HEK293/CRE-LUC S/N: 1.2
HEK293/CRE-Luc cells [3]
  S/N: 1.2
  EC50: > 200000 pM
[4]
  Plasma stability t½: >57.8 h
Human GLP1R [5]
  EC50: 1950 pM
  HEK293/CRE-LUC/hGLP1R Relative Potency (% P8 EC50): 0.3%
  HEK293/CRE-LUC/hGLP1R S/N: 46.3
Human GLP1R [6]
  S/N: 46.3
  EC50: 1950 pM
  Relative Potency (% M2361 EC50): 0.3%
  Relative Signal:Noise (% M2361): 70.3%
Human GLP1R [7]
  EC50: 1430 pM
